# Assay results as given in patent US4522943A, “Chemical compounds” (Bristol-Myers Company, priority 1982, dated 1985).
# How the values were obtained:
# gastric acid secretion [1] = assay: Gastric Antisecretory Activity in the Heidenhain Pouch Dog; format: in vivo, female dogs; conditions: for Potency Ratio [cimetidine = 1.0] (INTRAVENOUS) / Potency Ratio [cimetidine = 1.0] (ORAL): relative to cimetidine = 1.0
# Protocol: The dosage of the compounds of this invention will depend not only on such factors as the weight of the patient, but also on the degree of gastric acid inhibition desired and the potency of the particular compound being utilized. The decision as to the particular dosage to be employed is within the discretion of the physician. […] The usual human adult oral dose of cimetidine is 300 mg, given four times a day. The usual human adult starting oral dosages of the compounds of this invention are readily determined from their oral ED50 in this same test. […] Similar calculations may be made for iv dosages. These starting dosages (and the number of times administered per day) may, of course, be varied by titration of the dosage to the particular circumstances of the specific patient. […] The active ingredient will preferably be administered in equal doses from one to four times a day.
# (§1) Med Res., 3, 86 (1975). […] Two of the standard animal models for determining gastric antisecretory activity of histamaine H2 -antagonists are the Gastric Fistula Rat and the Heidenhain Pouch Dog.
# Determination of Gastric Antisecretory Activity in the Heidenhain Pouch Dog
# Prior to surgery, hematology and blood chemistry profiles are obtained and an assessment made as to the general health of selected female dogs. Dogs are vaccinated with Tissue Vax 5 (DHLP-Pitman-Moore) and housed in general animal quarters for four weeks' observation so incipient diseases may become apparent. Dogs are fasted with water ad libitium 24 hours prior to surgery.
# Anesthesia is induced with Sodium Pentothal (Abbott) 25-30 mg/kg iv. Subsequent anesthesia is maintained with methoxyflurane (Pitman-Moore). A mid-line linea alba incision from xiphoid to umbilicus provides good exposure and ease of closure. The stomach is pulled up into the operative field, the greater curvature stretched out at multiple points and clamps placed along the selected line of incision. The pouch is made from the corpus of the stomach so that true parietal cell juice is obtained. About 30% of the corpus volume is resected. The cannula is made of light-weight,biologically-inert material such as nylon or Delrin with dimensions and attachments after DeVito and Harkins [J. Appl. Physiol., 14, 138 (1959)]. Post operatively, dogs are medicated with antibiotics and an analgesic. They are allowed 2-3 months for recovery. Experiments are carried out in the following way: Dogs are fasted overnight (~18 hours) with water ad libitum prior to each experiment. The dogs are placed in a sling and a saphenous vein cannulated for drug administration. Histamine as the base (100 μg/kg/hr and chlorpheniramine maleate (0.25 mg/kg/hr) are infused continuously (in a volume of 6 ml/hr) with a Harvard infusion pump.
# Ninety minutes' infusion are allowed for the dogs to reach a steady state of acid output. At this time the drug or normal saline (control) is administered concomitantly with the secretagogue in a volume of 0.5 ml/kg over a 30 second period. When oral studies are to be carried out, the drug is administered via gastric gavage in a volume of 5 ml/kg. Infusion of the secretagogue is continued and 15 minute samples of the gastric juice are taken for 4.5 hours. Each sample is measured to the nearest 0.5 ml and titratable acidity is determined by titrating a 1 ml sample to pH 7.0 with 0.2N NaOH, using an Autoburet and an electrometric pH meter (Radiometer). Titratable acid output is calculated in microequivalents by multiplying the volume in milliliters by the acid concentration in milliequivalents per liter.
# Results are expressed as percent inhibition relative to control readings. Dose response curves are constructed and ED50 values are calculated by regression analyses. From 3 to 5 dogs are used at each dose level and a minimum of three dosage levels are utilized for determination of a dose response curve.
# histamine H2-receptor = conditions: relative to another H2-antagonist; cited from earlier work
# [2] = in vivo; cited from earlier work
# gastric secretion = conditions: in animals, including man; cited from earlier work
# gastric acid secretion [3] = assay: Gastric Antisecretory Activity in the Gastric Fistula Rat; format: in vivo, Male Long Evans rats; conditions: sc, relative to cimetidine = 1.0, 95% confidence limits on following line
# Protocol: as §1
# Determination of Gastric Antisecretory Activity in the Gastric Fistula Rat
# Male Long Evans rats weighing about 240-260 grams at the time of cannula implantation are used. The design and implantation of the stainless steel cannula into the anterior wall of the fore-stomach are carried out essentially as described by Pare et al. [Laboratory Animal Science, 27, 244 (1977)]. The fistula components are designed and the operative procedure is carried out exactly as described in the above reference. Post operatively the animals are individually housed in solid bottom cages with sawdust and are allowed food and water ad libitum throughout the entire recovery period. Animals are not used for test purposes for at least 15 days after the operative procedure.
# The animals are fasted but allowed water ad libitum for 20 hours before the testing procedure is to begin. […]
# Titratable acid output is calculated in microequivalents by multiplying the volume in milliliters by the acid concentration in milliequivalents per liter.
# Results are expressed as percent inhibition relative to control readings. Dose response curves are constructed and ED50 values are calculated by regression analyses. […]
# [4] = peptic ulcer disease, clinical evaluation; cited from earlier work
smiles,measurement,setting,value
"Nc1c(NCCCOc2cccc(CN3CCCCCC3)c2)c(=O)c1=O [Example 10i, 1-amino-2-[3-(3-hexamethyleneiminomethylphenoxy)propylamino]cyclobutene-3,4-dione]",Potency Ratio [cimetidine = 1.0] (INTRAVENOUS),gastric acid secretion [1],> 40
CNC(=S)NCCSCc1nc[nH]c1C [Metiamide],H2-antagonist potency / effectiveness,histamine H2-receptor,more potent than burimamide
"CN(C)Cc1ccc(CSCCNc2c(N)c(=O)c2=O)o1 [Example 2, 1-Amino-2-{2-[(5-dimethylaminomethyl-2-furyl)metylthio]ethylamino}cyclobutene-3,4-dione]",Potency Ratio [cimetidine = 1.0] (INTRAVENOUS),gastric acid secretion [1],~ 20
CNC(=S)NCCCCc1cnc[nH]1 [Burimamide],oral absorption,[2],poor
same,inhibits gastric secretion,gastric secretion,inhibits gastric secretion
"Nc1c(NCCCOc2cccc(CN3CCCCC3)c2)c(=O)c1=O [Example 1, 1-Amino-2-[3-(3-piperidinomethylphenoxy)propylamino]cyclobutene-3,4-dione]",Potency Ratio [cimetidine = 1.0] (INTRAVENOUS),gastric acid secretion [1],87
same,Potency Ratio [cimetidine = 1.0] (ORAL),gastric acid secretion [1]; oral,25
"CN(C)Cc1ccc(CSCCNc2c(N)c(=O)c2=O)s1 [Example 3, 1-Amino-2-{2-[(5-dimethylaminomethyl-2-thienyl)methylthio]ethylamino}cyclobutene-3,4-dione]",Potency Ratio [cimetidine = 1.0],gastric acid secretion [3],~ 1
CNC(=NC#N)NCCSCc1nc[nH]c1C [Cimetidine],H2-antagonist potency / effectiveness,histamine H2-receptor,as effective an H2 -antagonist as metiamide
same,clinical effectiveness,[4],effective therapeutic agent in the treatment of peptic ulcer disease
same,ED50 (ORAL),"gastric acid secretion [1]; oral, histamine-stimulated, 95% confidence limits on following line",3.29 µmol/kg
"CN(C)Cc1cccc(OCCCNc2c(N)c(=O)c2=O)c1 [Example 9, 1-Amino-2-[3-(3-dimethylaminomethylphenoxy)propylamino]cyclobutene-3,4-dion]",Potency Ratio [cimetidine = 1.0] (INTRAVENOUS),gastric acid secretion [1],~ 40
same,Potency Ratio [cimetidine = 1.0] (ORAL),gastric acid secretion [1]; oral,~ 20
